Test results reported in PubChem BioAssay (NCI).
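Following 48 hours of exposure in 96-well plates, responses at five concentrations were used to interpolate endpoints linearly. GI50 is the concentration that inhibits growth by half. At the TGI there is no net growth.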

How the values were obtained:
Test in all cases: NCI tumour cell line growth inhibition, 48 h
[1] = system: MDA-MB-231 breast
[2] = system: OVCAR-4 ovarian
[3] = system: SK-OV-3 ovarian
[4] = system: SK-MEL-28 melanoma
[5] = system: K-562 leukemia
[6] = system: NCI/ADR-RES ovarian
[7] = system: ACHN renal
[8] = system: 786-0 renal
[9] = system: MOLT-4 leukemia
[10] = system: DU-145 prostate
[11] = system: UACC-62 melanoma
[12] = system: LOX IMVI melanoma
[13] = system: SN12C renal
[14] = system: UACC-257 melanoma
[15] = system: SF-295 CNS
[16] = system: CAKI-1 renal
[17] = system: SK-MEL-5 melanoma
[18] = system: OVCAR-5 ovarian
[19] = system: SK-MEL-2 melanoma
[20] = system: MALME-3M melanoma
[21] = system: NCI-H226 lung
[22] = system: UO-31 renal
[23] = system: T-47D breast
[24] = system: SF-539 CNS
[25] = system: A549 NSCLC
[26] = system: HOP-92 NSCLC
[27] = system: RPMI-8226 leukemia
[28] = system: SNB-75 CNS
[29] = system: HCT-116 colon
[30] = system: NCI-H460 lung
[31] = system: PC-3 prostate
[32] = system: CCRF-CEM leukemia
[33] = system: SNB-19 CNS
[34] = system: OVCAR-8 ovarian
[35] = system: NCI-H522 lung
[36] = system: SF-268 CNS
[37] = system: KM12 colon
[38] = system: U251 CNS
[39] = system: TK-10 renal
[40] = system: HCC-2998 colon
[41] = system: HOP-62 NSCLC
[42] = system: OVCAR-3 ovarian
[43] = system: A498 renal
[44] = system: MCF7 breast
[45] = system: M14 melanoma
[46] = system: HCT-15 colon
[47] = system: HT29 colon
[48] = system: NCI-H23 lung
[49] = system: EKVX NSCLC
[50] = system: RXF 393 renal
[51] = system: IGROV1 ovarian
[52] = system: HL-60(TB) leukemia
[53] = system: SW-620 colon
[54] = system: MDA-MB-435
[55] = system: SR leukemia
[56] = system: BT-549 breast
[57] = system: COLO 205 colon

SMILES: O=C(O)C(/C=C/c1ccco1)=N\Nc1nc(-c2ccc(Cl)cc2)cs1
- GI50 [1]: 14.7 µM
- TGI [1]: > 50 µM
- GI50 [2]: 9.41 µM
- TGI [2]: > 50 µM
- GI50 [3]: 16.1 µM
- TGI [3]: > 50 µM
- GI50 [4]: 25.7 µM
- TGI [4]: > 50 µM
- GI50 [5]: 13.5 µM
- TGI [5]: > 50 µM
- GI50 [6]: 12.4 µM
- TGI [6]: > 50 µM
- GI50 [7]: 14.6 µM
- TGI [7]: > 50 µM
- GI50 [8]: 14.3 µM
- TGI [8]: > 50 µM
- GI50 [9]: 8.62 µM
- TGI [9]: > 50 µM
- GI50 [10]: 15.8 µM
- TGI [10]: > 50 µM
- GI50 [11]: 7.79 µM
- TGI [11]: 17.7 µM
- GI50 [12]: 6.62 µM
- TGI [12]: > 50 µM
- GI50 [13]: 13.2 µM
- TGI [13]: > 50 µM
- GI50 [14]: 16.8 µM
- TGI [14]: > 50 µM
- GI50 [15]: 0.842 µM
- TGI [15]: 4.23 µM
- GI50 [16]: 16.6 µM
- TGI [16]: > 50 µM
- GI50 [17]: 14.8 µM
- TGI [17]: > 50 µM
- GI50 [18]: 46.4 µM
- TGI [18]: > 50 µM
- GI50 [19]: 9.45 µM
- TGI [19]: 24.8 µM
- GI50 [20]: 35.8 µM
- TGI [20]: > 50 µM
- GI50 [21]: 9.41 µM
- TGI [21]: 25.4 µM
- GI50 [22]: 12.9 µM
- TGI [22]: > 50 µM
- GI50 [23]: 17.3 µM
- TGI [23]: > 50 µM
- GI50 [24]: 14.6 µM
- TGI [24]: > 50 µM
- GI50 [25]: 16 µM
- TGI [25]: > 50 µM
- GI50 [26]: 10.1 µM
- TGI [26]: 49.4 µM
- GI50 [27]: 15.8 µM
- TGI [27]: > 50 µM
- GI50 [28]: 23.1 µM
- TGI [28]: > 50 µM
- GI50 [29]: 11.6 µM
- TGI [29]: > 50 µM
- GI50 [30]: 8.36 µM
- TGI [30]: > 50 µM
- GI50 [31]: 17.3 µM
- TGI [31]: > 50 µM
- GI50 [32]: 3.26 µM
- TGI [32]: > 50 µM
- GI50 [33]: 9.64 µM
- TGI [33]: > 50 µM
- GI50 [34]: 6.93 µM
- TGI [34]: > 50 µM
- GI50 [35]: 7.61 µM
- TGI [35]: 41.3 µM
- GI50 [36]: 11.1 µM
- TGI [36]: > 50 µM
- GI50 [37]: 11.2 µM
- TGI [37]: > 50 µM
- GI50 [38]: 4.59 µM
- TGI [38]: > 50 µM
- GI50 [39]: 31.6 µM
- TGI [39]: > 50 µM
- GI50 [40]: 14.2 µM
- TGI [40]: > 50 µM
- GI50 [41]: 16.5 µM
- TGI [41]: > 50 µM
- GI50 [42]: 9.51 µM
- TGI [42]: > 50 µM
- GI50 [43]: > 50 µM
- TGI [43]: > 50 µM
- GI50 [44]: 10.2 µM
- TGI [44]: 40.6 µM
- GI50 [45]: 12.7 µM
- TGI [45]: > 50 µM
- GI50 [46]: 9.27 µM
- TGI [46]: > 50 µM
- GI50 [47]: 20.9 µM
- TGI [47]: > 50 µM
- GI50 [48]: 15.2 µM
- TGI [48]: > 50 µM
- GI50 [49]: 17.1 µM
- TGI [49]: > 50 µM
- GI50 [50]: 10.4 µM
- TGI [50]: 28.4 µM
- GI50 [51]: 7.93 µM
- TGI [51]: 29.6 µM
- GI50 [52]: 17.1 µM
- TGI [52]: > 50 µM
- GI50 [53]: 22.5 µM
- TGI [53]: > 50 µM
- GI50 [54]: 11.3 µM
- TGI [54]: > 50 µM
- GI50 [55]: 4.83 µM
- TGI [55]: > 50 µM
- GI50 [56]: 16.9 µM
- TGI [56]: > 50 µM
- GI50 [57]: 12.5 µM
- TGI [57]: 45.8 µM
